Laboratory results published in patent US10723692B2, “Lipids and lipid nanoparticle formulations for delivery of nucleic acids” (Acuitas Therapeutics, Inc., priority 2014, dated 2020).

Experiments:
[1] = system: luciferase expression in the liver; experiment: In vivo luciferase mRNA expression rodent model (LNP, liver luciferase); design: species or system C57BL/6 mice; conditions: Table 3, tail vein, liver 4 hours, LNP with 1.5% PEG-DMA (42-6), FLuc mRNA; for Liver Luc @ 0.3 mg/kg (ng luc/g liver): 0.3 mg mRNA/kg; for Liver Luc @ 1.0 mg/kg (ng luc/g liver): 1.0 mg mRNA/kg
Description: Cationic lipid (MC3), DSPC, cholesterol and PEG-lipid were solubilized in ethanol at a molar ratio of 50:10:38.5:1.5. Lipid nanoparticles (LNP) were prepared at a total lipid to mRNA weight ratio of approximately 10:1 to 30:1. Briefly, the mRNA was diluted to 0.2 mg/mL in 10 to 50 mM citrate buffer, pH 4. Syringe pumps were used to mix the ethanolic lipid solution with the mRNA aqueous solution at a ratio of about 1:5 to 1:3 (vol/vol) with total flow rates above 15 ml/min. The ethanol was then removed and the external buffer replaced with PBS by dialysis. Finally, the lipid nanoparticles were filtered through a 0.2 μm pore sterile filter. Lipid nanoparticle particle size was 70-90 nm diameter as determined by quasi-elastic light scattering using a Nicomp 370 submicron particle sizer (Santa Barbara, Calif.).
Studies were performed in 6-8 week old female C57BL/6 mice (Charles River) according to guidelines established by an institutional animal care committee (ACC) and the Canadian Council on Animal Care (CCAC). Varying doses of mRNA-lipid nanoparticle were systemically administered by tail vein injection and animals euthanized at specific time points (1, 2, 4, 8 and 24 hrs) post-administration. Liver and spleen were collected in pre-weighted tubes, weights determined, immediately snap frozen in liquid nitrogen and stored at −80° C. until processing for analysis.
For liver, approximately 50 mg was dissected for analyses in a 2 mL FastPrep tubes (MP Biomedicals, Solon Ohio). ¼″ ceramic sphere (MP Biomedicals) was added to each tube and 500 μL of Glo Lysis Buffer—GLB (Promega, Madison Wis.) equilibrated to room temperature was added to liver tissue. Liver tissues were homogenized with the FastPrep24 instrument (MP Biomedicals) at 2×6.0 m/s for 15 seconds. Homogenate was incubated at room temperature for 5 minutes prior to a 1:4 dilution in GLB and assessed using SteadyGlo Luciferase assay system (Promega). Specifically, 50 μL of diluted tissue homogenate was reacted with 50 μL of SteadyGlo substrate, shaken for 10 seconds followed by 5 minute incubation and then quantitated using a CentroXS^3 LB 960 luminometer (Berthold Technologies, Germany). The amount of protein assayed was determined by using the BCA protein assay kit (Pierce, Rockford Ill.). Relative luminescence units (RLU) were then normalized to total ug protein assayed. To convert RLU to ng luciferase a standard curve was generated with QuantiLum Recombinant Luciferase (Promega). Based in the data provided in FIG. 1, the four-hour time point was chosen for efficacy evaluation of the lipid formulations (see EXAMPLE 48).
The FLuc mRNA (L-6107) from Trilink Biotechnologies will express a luciferase protein, originally isolated from the firefly, Photinus pyralis. FLuc is commonly used in mammalian cell culture to measure both gene expression and cell viability. It emits bioluminescence in the presence of the substrate, luciferin. This capped and polyadenylated mRNA is fully substituted with 5-methylcytidine and pseudouridine.
The cationic lipids shown in Table 2 have previously been tested with nucleic acids. For comparative purposes, these lipids were also used to formulate lipid nanoparticles containing the FLuc mRNA (L-6107) using an in line mixing method, as described in EXAMPLE 47 and in PCT/US10/22614, which is hereby incorporated by reference in its entirety. Lipid nanoparticles were formulated using the following molar ratio: 50% Cationic lipid/10% distearoylphosphatidylcholine (DSPC)/38.5% Cholesterol/1.5% PEG lipid (“PEG-DMG”, i.e., (1-(monomethoxy-polyethyleneglycol)-2,3-dimyristoylglycerol, with an average PEG molecular weight of 2000). Relative activity was determined by measuring luciferase expression in the liver 4 hours following administration via tail vein injection as described in EXAMPLE 47. The activity was compared at a dose of 0.3 and 1.0 mg mRNA/kg and expressed as ng luciferase/g liver measured 4 hours after administration, as described in EXAMPLE 47. […]

[2] = pKa of formulated cationic lipids in lipid nanoparticles (TNS fluorescence assay); format: physicochemical; conditions: Table 3, in LNP cationic lipid/DSPC/cholesterol/PEG-lipid 50/10/38.5/1.5 mol %, read-out: pKa
Description: As described elsewhere, the pKa of formulated cationic lipids is correlated with the effectiveness of LNPs for delivery of nucleic acids (see Jayaraman et al, Angewandte Chemie, International Edition (2012), 51(34), 8529-8533; Semple et al, Nature Biotechnology 28, 172-176 (2010)). The preferred range of pKa is ˜5 to ˜7. […] Lipid nanoparticles comprising of cationic lipid/DSPC/cholesterol/PEG-lipid (50/10/38.5/1.5 mol %) in PBS at a concentration of 0.4 mM total lipid are prepared using the in-line process as described in EXAMPLE 47. TNS was prepared as a 100 μM stock solution in distilled water. Vesicles were diluted to 24 μM lipid in 2 mL of buffered solutions containing, 10 mM HEPES, 10 mM MES, 10 mM ammonium acetate, 130 mM NaCl, where the pH ranged from 2.5 to 11. An aliquot of the TNS solution was added to give a final concentration of 1 μM and following vortex mixing fluorescence intensity was measured at room temperature in a SLM Aminco Series 2 Luminescence Spectrophotometer using excitation and emission wavelengths of 321 nm and 445 nm. A sigmoidal best fit analysis was applied to the fluorescence data and the pKa was measured as the pH giving rise to half-maximal fluorescence intensity (see FIG. 2).

SMILES	Liver Luc @ 0.3 mg/kg (ng luc/g liver) [1] [ng luc/g liver]	Liver Luc @ 1.0 mg/kg (ng luc/g liver) [1] [ng luc/g liver]	pKa [2]
CCCCCCC(CCCC)COC(=O)CCCCCCCN(CCCCCCCC(=O)OCC(CCCC)CCCCCC)CCN(C)C (stereo not drawn) [Compound 20]	301 ± 155	501 ± 96	6.44
CCCCCCC(CCCC)COC(=O)CCCCCCCCCN(CCCCCCCCCC(=O)OCC(CCCC)CCCCCC)CCN(C)C (stereo not drawn) [Compound 21]	404 ± 103	4149 ± 2514	6.28
CCCCCCCCC(CCCCCC)COC(=O)CCCCCN(CCCCCC(=O)OCC(CCCCCC)CCCCCCCC)CCN(C)C (stereo not drawn) [Compound 22]	2126 ± 294	14486 ± 6607	6.53
CCCCCCCCC(CCCCCC)COC(=O)CCCCCCCN(CCCCCCCC(=O)OCC(CCCCCC)CCCCCCCC)CCN(C)C (stereo not drawn) [Compound 23]	1109 ± 209	4568 ± 762	6.24
CCCCCCCCCCC(C)OC(=O)CCCCCCCCCN(CCCCCCCCCC(=O)OC(C)CCCCCCCCCC)CCN(C)C (stereo not drawn) [Compound 24]	1094 ± 180	6928 ± 1015	6.28
CCCCCCCCC(CCCCCC)COC(=O)CCCCCCCCCN(CCCCCCCCCC(=O)OCC(CCCCCC)CCCCCCCC)CCN(C)C (stereo not drawn) [Compound 25]	901 ± 173	6223 ± 1714	6.2
CCCCC/C=C\C/C=C\CCCCCCCCOC(=O)CCCCCN(CCCCCC(=O)OCCCCCCCC/C=C\C/C=C\CCCCC)CCN(C)C [Compound 26]	30 ± 5	55 ± 0.8	6.89
CCCCCCCCCCC(CCCCCCCC)COC(=O)CCCCCN(CCCCCC(=O)OCC(CCCCCCCC)CCCCCCCCCC)CCN(C)C (stereo not drawn) [Compound 27]	724 ± 144	6636 ± 1230	6.3
CCCCCCCCCCC(CCCCCCCC)COC(=O)CCCCCCCN(CCCCCCCC(=O)OCC(CCCCCCCC)CCCCCCCCCC)CCN(C)C (stereo not drawn) [Compound 28]	522 ± 86	4582 ± 1291	6.2
CCCCCCC(CCCCCC)OC(=O)CCCCCCCCCN(CCCCCCCCCC(=O)OC(CCCCCC)CCCCCC)CCN(C)C [Compound 29]	1303 ± 445	9750 ± 3519	6.22
CCCCCCCCCCC(CCCCCCCC)COC(=O)CCCCCN(CCCCCC(=O)OCC(CCCCCCCC)CCCCCCCCCC)CCN1CCCC1 (stereo not drawn) [Compound 31]	344 ± 160	4103 ± 1073	6.33
CCCCCCCCC(CCCCCC)COC(=O)CCCCCN(CCCCCC(=O)OCC(CCCCCC)CCCCCCCC)CCN1CCCC1 (stereo not drawn) [Compound 32]	626 ± 299	12266 ± 192	6.47
